Measurements taken from patent US8299097B2, “Methods for treating inflammatory disorders” (The Brigham and Women's Hospital, Inc., priority 2008, dated 2012).

Columns and labels:
human blood platelets = test: Platelet activation, cytofluorographic detection of P-selectin (CD62P); format: cell-based; conditions: ADP 100 μM or LTE4 1 μM, 10 min
Experimental: FIG. 6. […] Each antibody (Ab) was diluted in 50 μl of sterile saline. […] 6A. PAS stains of the lungs of representative mice treated with isotype control (top) or with an anti-CD42 platelet-depleting antibody (bottom). 6B. Inflammation (top) and goblet cell metaplasia (bottom) in the lungs of mice treated with the indicated LT and antibody. A cohort of mice was treated with clopidogrel as indicated. Results in 6B are from a single experiment with 5 mice per group. […] 6C. […] Results are from a single experiment performed three times on different donors.
Platelets accumulate in the lungs of asthmatic individuals (Jeffery, P. K., et al. 1989. Am. Rev. Respir. Dis. 140:1745-1753), and are also recruited to the lungs of ovalbumin sensitized and challenged mice by an IgE-dependent mechanism (Pitchford, S. C., et al. 2008. Am. J. Respir. Crit. Care Med. 177:604-612).

human CysLT1R = biological target: T1, human CysLT1R (Homo sapiens, UniProt Q9Y271); test: ERK activation in CysLT1R CHO transfectants; format: cell-based
T1 construct: expressed in transfected cells
T1 sequence (Q9Y271 1-337): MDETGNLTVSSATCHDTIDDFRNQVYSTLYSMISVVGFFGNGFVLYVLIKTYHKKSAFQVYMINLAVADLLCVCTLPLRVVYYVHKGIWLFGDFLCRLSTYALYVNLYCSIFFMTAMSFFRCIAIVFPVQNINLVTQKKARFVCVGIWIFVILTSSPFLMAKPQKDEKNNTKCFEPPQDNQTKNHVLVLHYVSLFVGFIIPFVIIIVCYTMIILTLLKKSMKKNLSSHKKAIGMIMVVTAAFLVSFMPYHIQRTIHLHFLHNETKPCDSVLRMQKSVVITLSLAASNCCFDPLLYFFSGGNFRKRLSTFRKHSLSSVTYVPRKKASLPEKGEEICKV
Experimental: FIG. 1. Activation by recombinant human P2Y12 receptors in response to cys-LTs. The human P2Y12 receptor cDNA was cloned in forward and reverse orientation into the expression vector pEF1/His B and transfected into CHO cells using Fugene HD reagent. Stably-expressing clones were selected using G418 (1000 μg/ml), and expression of the construct was confirmed by cytofluorographic detection of the HIS tag. 1A. […] 1B. SDS-PAGE immunoblots showing phosphorylation of ERK2 by CHO cells stably expressing human P2Y12 receptors in reverse (negative control) or forward orientations. […] The blots were stripped and re-probed with an antibody (Ab) recognizing total ERK1 and ERK2. […] 1C. Effect of the selective P2Y12 receptor antagonist 2-MesAMP (MeS) on ligand-induced ERK phosphorylation. P2Y12 receptor expressing CHO cells were stimulated with the same doses of agonists used in 1A, in the absence or presence of 2-MesAMP (100 μM). 1D. Comparison of P2Y12 receptor-mediated responses to cys-LTs with those of recombinant human CysLT1R and CysLT2R expressed in CHO cells, and the effect of the CysLT1R antagonist MK571 (1 μM).
A P2Y12 receptor cDNA was amplified by reverse transcriptase polymerase chain reaction (RT-PCR) from RNA extracted from primary hMCs and cloned into a mammalian expression vector. Expression was confirmed by detection of a histidine (HIS) tag by flow cytometry. […]

LAD2 cells = test: Calcium flux of LAD2 cells stimulated with LTD4 or LTE4; format: cell-based, human; conditions: agonists 500 nM; MK571 1 μM, 2-MesAMP 100 μM
Experimental: FIG. 2. Requirement for P2Y12 receptors in LTE4-mediated LAD2 cell activation. 2A. Calcium flux of LAD2 cells stimulated with the indicated agonists (500 nM) in the presence or absence of the P2Y12 receptor-selective antagonist 2-MeSAMP (100 μM). […] 2B. […] Cells sensitized overnight with IgE and challenged with anti-IgE were used as the positive control. 2C. […] Results in 2B and 2C are mean±SEM from three independent experiments each. 2D. Effect of shRNA-mediated knockdown of P2Y12 receptor mRNA expression by LAD2 cells.
Pre-treatment of the LAD2 cells with 2-MesAMP blocked the LTE4-mediated increment in MIP-1β production by >50% (FIG. 2B). […] To exclude potential off-target effects of the inhibitors, samples of LAD2 cells were transfected with lentiviruses encoding a P2Y12 sequence-specific shRNA, a CysLT1R-specific shRNA, or an empty vector control before stimulation. […] LTE4- and LTD4-dependent production of PGD2 were abrogated by the knockdowns of P2Y12 and CysLT1R, respectively (FIG. 2C, bottom). Neither GPCR knockdown altered MIP-1β generation or PGD2 production in response to IgE-anti-IgE (FIG. 2C). LTE4-mediated MIP-1β generation (FIG. 9A) and ERK activation (FIG. 9B) were not altered by treatment of LAD2 cells with apyrase to degrade extracellular ADP.
LAD2 cells (0.5-1×10^6/sample) were washed and labeled with fura 2-AM for 30 min at 37° C. […]

| effect on cys-LT-induced ERK activation (human CysLT1R) | Structure (SMILES) | CD62P expression by platelets (human blood platelets) | effect on LTD4- or LTE4-mediated calcium flux (LAD2 cells) |
| --- | --- | --- | --- |
|  | CCCCC/C=C\C\C=C/C=C/C=C/[C@@H](SC[C@H](N)C(=O)O)[C@@H](O)CCCC(=O)O [LTE4] | no CD62P expression was detected |  |
| susceptible | CN(C)C(=O)CCSC(SCCC(=O)O)c1cccc(/C=C/c2ccc3ccc(Cl)cc3n2)c1 (stereo not drawn) [MK571] |  | blocked calcium responses |
